# In paper PMC4914250, “Cancer therapeutic approach based on conformational stabilization of mutant p53 protein by small peptides” (Oncotarget, 2016):
# Experiments:
# [1] = test system: mutp53 in BT549 cell extract; experiment: ELISA of mutp53 conformation, BT549; format: biochemical, human; conditions: score 0-6 compared to positive control
# Description: (§1) A total of close to 350 peptides, deduced from the phage sequences, were synthesized and subjected to several alternative complementary methods of semi high-throughput functional screening; we refer to these peptides as pCAPs (p53 conformation activating peptides). First, we used cell-free ELISA assays to evaluate the effect of individual peptides on mutp53 conformation and DNA binding in vitro. For conformation analysis (Figure 2A), microtiter plates were coated with PAb240, PAb1620 or PAb421 as control, then the effect of each peptide on reactivity of mutp53 with these antibodies was examined; WTp53 served as a positive control for PAb1620 reactivity.
# (§2) 96-well plates were coated using 3 different anti p53 monoclonal antibodies, PAb421, PAb240 and PAb1620. Wells were incubated overnight (ON) with 100μl Ab (5μg/ml) in room temp (RT). The liquid was discarded, and the wells were washed 3 times with PBS, 200 μl. Next, blocking with 5% BSA in PBS for 2 hours (RT) was performed, followed by 3 washes in PBS. Samples of mutant and WT p53 proteins (100 μl, 10 μg/ml), together with control peptides or with test peptides 1-326 (5μg /ml), were incubated for 1.5 hours, and then added to the wells for1 hour at RT. 4 washes with PBST were performed. Next, HRP conjugated αp53 antibody (10μg/ml HAF1355 (R&D)) were added to the wells and incubated at RT for 1 hour. Plates were washed 3 times in PBST and TMB substrate solution (50μl each well, Thermo, (Cat. No. ES001-1L-K)) was added and incubated at 37°C for 20 min. The reaction was stopped with 2M Sulfuric acid (50μl). The absorbance was measured at 450 nm with a spectrophotometer. Protein concentration was determined by dividing the absorb an each sample to by the absorbance of PAb421 samples.
# [2] = test system: mutp53 in SK3 cell extract; experiment: ELISA of mutp53 conformation, SK3; format: biochemical, human; conditions: score 0-6 compared to positive control
# Description: as §1, §2
# HOP62 = experiment: Crystal violet viability assay, HOP62; format: cell-based, human; parameters: key: score 0- no effect-white; score 6- as or more effective than positive control- black; conditions: score 0-6 compared to positive control, 48 h
# Description: We also performed a similar analysis on ES2 ovarian cancer cells, which express endogenous mp53^S241F, compared to ES2 cells in which p53 was stably knocked out using CRISPR/Cas9 (ES2 p53KO Figure S1F), to control for specificity for mutp53 (Figure 2D). In ES2 cells, too, some of the peptides caused a significant reduction in cell numbers, more prominent in the mutp53 expressing cells than in their p53KO counterparts. […] Overall, we performed this analysis on several different mutp53-expressing human cancer cell lines, and the results are summarized in Table S3. Based on this comprehensive picture, we reduced the number of most promising candidate lead peptides to 30. These peptides were then synthesized with an 8 arginine C-terminal tail for enhanced delivery across cell membranes (pCAPs 130-160); for clarity, peptides are referred to by their original number, with an R for poly arginine (see Table S3).
# Cells were cultured in 96 wells plates with 2500-4000 cells/well. Serial dilutions of different peptides were added and the plates incubated for additional 48 h at 37°C. Then medium was removed and cell viability was determined by staining the cells with crystal violet (0.05%) in methanol/PBS (1:5, v/v), for 10 min, followed by 3 washes with PBS. 10% acetic acid was added to each well for 10 min. OD was determined at 595 nm.
Substance,Conform BT549 [1],Conform SK3 [2],Viability HOP62 (HOP62)
LHSKTLVL [pCAP-17],2,–,–
"SFILFIRRGRLGRRRRRRRRR [pCAP-60R, pCAP-60 with poly arginine tail]",2,3,2
myr-RRKHNKHRPEPDSDER [pCAP-221],3,3,5
"myr-RRKILFIRLMHNKH [pCAP-227, myristoylated peptide, similarity to GAS2]",4,1,6
HSSHHHPVHSWN [pCAP-83],–,2,–
"WNHHHSTPHPAHRRRRRR [pCAP-97R, pCAP-97 with poly arginine tail]",–,3,4
"LRCLLLLIGRVGRRRRRRRR [pCAP-24R, pCAP-24 with poly arginine tail]",2,2,–
myr-RRIRDPRILLLHFD [pCAP-325],3,3,4
HHPWTHHQRWS [pCAP-20],–,4,–
HANLHHT [pCAP-87],2,–,3
WNHHHSTPHPAH [pCAP-97],–,3,4
"IRILMFLIGCGRRRRRRRRR [pCAP-23R, pCAP-23 with poly arginine tail]",1,–,3
IRGRIIR [pCAP-54],2,–,–
myr-RRLIVRILKLPNPPER [pCAP-242],4,–,5
YRRLLIGMMWRRRRRRRRR [pCAP-68],–,5,5
LRCLLLLIGRVG [pCAP-24],2,2,–
YPTQGHLR [pCAP-36],–,3,3
IRILMFLIGCGR [pCAP-23],2,–,3
"EVTFRHSVV [pCAP-1, randomly selected peptide used as inert comparison]",1,–,3
SFILFIRRGRLG [pCAP-60],1,2,3
"myr-PRVLPSPHTIHPSQYP [pCAP-229, myristoylated peptide, similarity to HIPK2]",–,2,4
"IRGRIIRRRRRRRRR [pCAP-54R, pCAP-54 with poly arginine tail]",2,–,2
